Experimental data: US11850247B2, “Antiviral compounds” (REGENTS OF THE UNIVERSITY OF MINNESOTA, priority 2020, dated 2023)

How the values were obtained:
HIV-1 = assay: Anti-HIV-1 activity in TZM-GFP cells (viral LTR-activated GFP expression); type: cell-based; settings: Human immunodeficiency virus 1, HIV-1 strain MOI=1, GFP positive cells counted after 48 hours
Summary of the method: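 TZM-GFP cells treated with increasing compound for 24 h, then infected with HIV-1 (MOI=1); EC50 based on inhibition of LTR-driven GFP expression versus DMSO controls. CC50 determined by XTT after 72 h continuous exposure in the same cells; duplicate, ≥2 independent experiments, variable-slope curve fit.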

TZM-GFP cells = assay: Cytotoxicity in TZM-GFP cells (XTT); type: cell-based; settings: 50 μM compound
Summary of the method: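 TZM-GFP cells (1×10^4 per well) exposed continuously to increasing compound concentrations for 72 hours. Viable cells measured by XTT; CC50 from log(inhibitor) vs. normalized response-variable slope fit, averaged over at least two independent duplicate experiments.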

[1] = target: covalently-crosslinked hexameric CA A14C/E45C/W184A/M185A (CA121) (Human immunodeficiency virus type 1 group M subtype B, UniProt P12493, A146C/E177C/M317A/W316A); assay: Thermal shift assay (TSA), CA hexamer stability; type: binding, HIV-1; settings: compound 20 μM, ΔTm=Tm−T0 vs DMSO
[2] = Microsomal stability assay, human liver microsomes; type: in vitro ADME; settings: human liver microsomes, 1 μM compound, NADPH
Protocol: (§1) The in vitro microsomal stability assay was conducted in duplicate in mouse and human liver microsomal systems, which were supplemented with nicotinamide adenine dinucleotide phosphate (NADPH) as a cofactor. […] The reaction was initiated by addition of 1 mM NADPH, followed by incubation at 37° C. A negative control was performed in parallel in the absence of NADPH to measure any chemical instability or non-NADPH dependent enzymatic degradation for each compound. At various time points (0, 5, 15, 30, and 60 minutes), 1 volume of reaction aliquot was taken and quenched with 3 volumes of acetonitrile containing an appropriate internal standard and 0.1% formic acid. The samples were then vortexed and centrifuged at 15,000 rpm for 5 minutes at 4° C. The supernatants were collected and analyzed by LC-MS/MS to determine the in vitro metabolic half-life (t1/2).

[3] = Microsomal stability assay, mouse liver microsomes; type: in vitro ADME; settings: NADPH
Protocol: as §1

[4] = pH 7.4, without Cobicistat, read-out: HLM half-life (t1/2)
[5] = pH 7.4, 1 μM compound, without Cobicistat, read-out: MLM half-life (t1/2)
[6] = 1 μM compound, without Cobicistat
[7] = 1 μM compound, with 0.5 μM Cobicistat (CYP3A inhibitor)
[8] = pH 7.4, with Cobicistat 0.5 μM (CYP3A inhibitor), with 0.5 μM Cobicistat (CYP3A inhibitor), read-out: HLM (+Cobi) half-life (t1/2)

Row | SMILES | EC50 (HIV-1) | % viability at 50 μM (TZM-GFP cells) | TSA ΔTm (° C.) [1] | HLM half-life (t1/2) ([2]; without Cobicistat) | MLM half-life (t1/2) [3, 6] | also measured
1 | Cc1[nH]c2ccccc2c1CC(=O)N[C@@H](Cc1ccccc1)c1ncccc1-c1ccccc1 [Example 49, (S)-2-(2-methyl-1H-indol-3-yl)-N-(2-phenyl-1-(3-phenylpyridin-2-yl)ethyl)acetamide] | 2.6 ± 0.4 µM | 29 ± 12% | 4.5 °C |  |  | 
2 | O=C(Cn1ncc2ccccc21)N[C@@H](Cc1ccccc1)c1ncccc1-c1ccccc1 [Example 50, (S)-2-(1H-indazol-1-yl)-N-(2-phenyl-1-(3-phenylpyridin-2-yl)ethyl)acetamide] | 8.8 ± 0.4 µM | 46 ± 13% | 1.0 °C |  |  | 
3 | O=C(Cn1cccn1)N[C@@H](Cc1ccccc1)c1ncccc1-c1ccccc1 [Example 51, (S)—N-(2-phenyl-1-(3-phenylpyridin-2-yl)ethyl)-2-(1H-pyrazol-1-yl)acetamide] | 5.1 ± 0.7 µM | 102 ± 6% | 1.1 °C |  |  | 
4 | Cc1[nH]c2ccccc2c1CC(=O)N[C@@H](Cc1ccccc1)c1nccn1-c1ccccc1 [Example 52, (S)-2-(2-methyl-1H-indol-3-yl)-N-(2-phenyl-1-(1-phenyl-1H-imidazol-2-yl)ethyl)acetamide] | 3.7 ± 0.8 µM | 78 ± 6% | 3.9 °C |  |  | 
5 | Cc1[nH]c2ccccc2c1CC(=O)N[C@@H](Cc1ccccc1)c1nccn1-c1ccc(C#N)cc1 [Example 53, (S)—N-(1-(1-(4-cyanophenyl)-1H-imidazol-2-yl)-2-phenylethyl)-2-(2-methyl-1H-indol-3-yl)acetamide] | 6.6 ± 0.4 µM | 87 ± 8% | 2.2 °C |  |  | 
6 | COc1ccc(N(C)C(=O)[C@H](Cc2ccccc2)NC(=O)CN2C(=O)NC3(CCCCC3)C2=O)cc1 [drawing 186] |  |  |  |  |  | half-life at 1 μM [2, 4]: 5.2 min; half-life at 1 μM [3, 5]: 0.7 min
7 | Cc1ccc(N(C)C(=O)[C@H](Cc2ccccc2)NC(=O)CN2C(=O)NC3(CCCCC3)C2=O)cc1 [drawing 187] |  |  |  |  |  | half-life at 1 μM [2, 4]: 3.3 min; half-life at 1 μM [3, 5]: 1.2 min
8 | CN(C(=O)[C@H](Cc1ccccc1)NC(=O)CN1C(=O)NC2(CCCCC2)C1=O)c1ccc(F)cc1 [drawing 188] |  |  |  |  |  | half-life at 1 μM [2, 4]: 1.1 min; half-life at 1 μM [3, 5]: 0.5 min
9 | CN(C(=O)[C@H](Cc1ccccc1)NC(=O)CN1C(=O)NC2(CCCCC2)C1=O)c1ccc(Cl)cc1 [drawing 189] |  |  |  |  |  | half-life at 1 μM [2, 4]: 3.1 min; half-life at 1 μM [3, 5]: 0.9 min
10 | CN(C(=O)[C@H](Cc1ccccc1)NC(=O)CNC(=O)c1ccccc1)c1ccccc1 [drawing 190] |  |  |  | 15 min | 3.6 min | 
11 | Cc1ccc(N(C)C(=O)[C@H](Cc2ccccc2)NC(=O)CNC(=O)c2ccccc2)cc1 [drawing 191] |  |  |  | 22 min | 5.0 min | HLM (+Cobi) half-life (t1/2) ([2]; with 0.5 μM Cobicistat (CYP3A inhibitor)): 42 min; MLM (+Cobi) half-life (t1/2) [3, 7]: 34 min
12 | CN(C(=O)[C@H](Cc1ccccc1)NC(=O)CNC(=O)c1ccccc1)c1ccc(Cl)cc1 [drawing 192] |  |  |  | 36 min | 13 min | half-life at 1 μM [2, 8]: 141 min; MLM (+Cobi) half-life (t1/2) [3, 7]: 52 min
13 | CN(C(=O)[C@H](Cc1ccccc1)NC(=O)CNC(=O)c1ccccc1)c1cccc(F)c1 [drawing 193] |  |  |  | 12 min | 3.6 min | 
14 | CCN(C(=O)[C@H](Cc1ccccc1)NC(=O)CNC(=O)c1ccccc1)c1ccccc1 [drawing 194] |  |  |  | 14 min | 2.4 min | half-life at 1 μM [2, 8]: 231 min; MLM (+Cobi) half-life (t1/2) [3, 7]: 28 min
15 | Cc1cn(CC(=O)N[C@@H](Cc2ccccc2)C(=O)N(C)c2ccc(Cl)cc2)c(=O)[nH]c1=O [drawing 195] |  |  |  | 12 min | 4.6 min | half-life at 1 μM [2, 8]: 1390 min; half-life at 1 μM ([3]; pH 7.4, with Cobicistat 0.5 μM (CYP3A inhibitor), 1 μM compound, with 0.5 μM Cobicistat (CYP3A inhibitor), read-out: MLM (+Cobi) half-life (t1/2)): 385 min
